How the values were obtained:
Test in all cases: cells
TE-1 = type: functional, cell-based, Homo sapiens; conditions: Homo sapiens, TE-1;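 further: growth inhibition of the human TE-1 cell line, read out with a cell viability assay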
Description: SANGER: Inhibition of human TE-1 cell growth in a cell viability assay.

LXF-289 cell line = type: functional, cell-based, Homo sapiens; conditions: Homo sapiens, LXF-289
Description: SANGER: Inhibition of human LXF-289 cell growth in a cell viability assay.

LB1047-RCC = type: functional, cell-based, Homo sapiens; conditions: Homo sapiens, LB1047-RCC;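 further: inhibition of cell growth, determined with a cell viability assay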
Description: SANGER: Inhibition of human LB1047-RCC cell growth in a cell viability assay.

HT = type: functional, cell-based, Homo sapiens; conditions: Homo sapiens, HT
Description: SANGER: Inhibition of human HT cell growth in a cell viability assay.

SK-MEL-1 = type: functional, cell-based, Homo sapiens; conditions: Homo sapiens, SK-MEL-1;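 further: growth inhibition of human SK-MEL-1 cells, read out by a cell viability assay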
Description: SANGER: Inhibition of human SK-MEL-1 cell growth in a cell viability assay.

SH-4 = type: functional, cell-based, Homo sapiens; conditions: Homo sapiens, SH-4;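 further: growth inhibition of SH-4 cells, read out with a cell viability assay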
Description: SANGER: Inhibition of human SH-4 cell growth in a cell viability assay.

Mo = type: functional, cell-based, Homo sapiens; conditions: Homo sapiens, Mo
Description: SANGER: Inhibition of human Mo-T cell growth in a cell viability assay.

MC116 = type: functional, cell-based, Homo sapiens; conditions: Homo sapiens, MC116;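 further: growth inhibition of MC116 cells, read out with a cell viability assay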
Description: SANGER: Inhibition of human MC116 cell growth in a cell viability assay.

LB996-RCC = type: functional, cell-based, Homo sapiens; conditions: Homo sapiens, LB996-RCC
Description: SANGER: Inhibition of human LB996-RCC cell growth in a cell viability assay.

SK-NEP-1 = type: functional, cell-based, Homo sapiens; conditions: Homo sapiens, SK-NEP-1;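 further: growth inhibition of human SK-NEP-1 cells, read out by a cell viability assay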
Description: SANGER: Inhibition of human SK-NEP-1 cell growth in a cell viability assay.

A4-Fuk = type: functional, cell-based, Homo sapiens; conditions: Homo sapiens, A4-Fuk;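 further: growth inhibition of A4-Fuk cells, read out by a cell viability assay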
Description: SANGER: Inhibition of human A4-Fuk cell growth in a cell viability assay.

BB65-RCC = type: functional, cell-based, Homo sapiens; conditions: Homo sapiens, BB65-RCC;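 further: growth inhibition of the cell line, measured with a cell viability assay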
Description: SANGER: Inhibition of human BB65-RCC cell growth in a cell viability assay.

EM-2 = type: functional, cell-based, Homo sapiens; conditions: Homo sapiens, EM-2;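 further: growth inhibition of EM-2 cells, read out with a cell viability assay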
Description: SANGER: Inhibition of human EM-2 cell growth in a cell viability assay.

LS-1034 = type: functional, cell-based, Homo sapiens; conditions: Homo sapiens, LS-1034
Description: SANGER: Inhibition of human LS-1034 cell growth in a cell viability assay.

LU-134-A = type: functional, cell-based, Homo sapiens; conditions: Homo sapiens, LU-134-A
Description: SANGER: Inhibition of human LU-134-A cell growth in a cell viability assay.

NCI-H23 = type: functional, cell-based, Homo sapiens; conditions: Homo sapiens, NCI-H23;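 further: cell viability assay measuring growth inhibition of NCI-H23 cells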
Description: SANGER: Inhibition of human NCI-H23 cell growth in a cell viability assay.

SK-PN-DW = type: functional, cell-based, Homo sapiens; conditions: Homo sapiens, SK-PN-DW;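 further: growth inhibition measured with a viability assay on these cells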
Description: SANGER: Inhibition of human SK-PN-DW cell growth in a cell viability assay.

BE-13 = type: functional, cell-based, Homo sapiens; conditions: Homo sapiens, BE-13;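 further: growth inhibition of human BE-13 cells, measured with a cell viability assay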
Description: SANGER: Inhibition of human BE-13 cell growth in a cell viability assay.

DMS-114 = type: functional, cell-based, Homo sapiens; conditions: Homo sapiens, DMS-114
LB2518-MEL = type: functional, cell-based, Homo sapiens; conditions: Homo sapiens, LB2518-MEL;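 further: growth inhibition of human LB2518-MEL cells, measured with a cell viability assay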
Description: SANGER: Inhibition of human LB2518-MEL cell growth in a cell viability assay.

RH-1 = type: functional, cell-based, Homo sapiens; conditions: Homo sapiens, RH-1;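 further: growth inhibition of human RH-1 cells, read out with a cell viability assay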
Description: SANGER: Inhibition of human RH-1 cell growth in a cell viability assay.

MEG-01 = type: functional, cell-based, Homo sapiens; conditions: Homo sapiens, MEG-01;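 further: growth inhibition of MEG-01 cells, read out by a cell viability assay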
Description: SANGER: Inhibition of human MEG-01 cell growth in a cell viability assay.

HAL-01 = type: functional, cell-based, Homo sapiens; conditions: Homo sapiens, HAL-01;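 further: growth inhibition of human HAL-01 cells, read out with a cell viability assay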
Description: SANGER: Inhibition of human HAL-01 cell growth in a cell viability assay.

CAS-1 = type: functional, cell-based, Homo sapiens; conditions: Homo sapiens, CAS-1;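 further: growth inhibition of CAS-1 cells, measured with a cell viability assay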
Description: SANGER: Inhibition of human CAS-1 cell growth in a cell viability assay.

MLMA = type: functional, cell-based, Homo sapiens; conditions: Homo sapiens, MLMA;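 further: growth inhibition of MLMA cells (human), determined through a cell viability readout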
Description: SANGER: Inhibition of human MLMA cell growth in a cell viability assay.

GR-ST = type: functional, cell-based, Homo sapiens; conditions: Homo sapiens, GR-ST
Description: SANGER: Inhibition of human GR-ST cell growth in a cell viability assay.

OCI-AML2 = type: functional, cell-based, Homo sapiens; conditions: Homo sapiens, OCI-AML2;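 further: growth inhibition of OCI-AML2 cells, read out with a cell viability assay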
Description: SANGER: Inhibition of human OCI-AML2 cell growth in a cell viability assay.

A704 = type: functional, cell-based, Homo sapiens; conditions: Homo sapiens, A704;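 further: growth inhibition of human A704 cells, read out with a cell viability assay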
Description: SANGER: Inhibition of human A704 cell growth in a cell viability assay.

U-266 = type: functional, cell-based, Homo sapiens; conditions: Homo sapiens, U-266
Description: SANGER: Inhibition of human U-266 cell growth in a cell viability assay.

697 = type: functional, cell-based, Homo sapiens; conditions: Homo sapiens
Description: SANGER: Inhibition of human 697 cell growth in a cell viability assay.

D-502MG = type: functional, cell-based, Homo sapiens; conditions: Homo sapiens, D-502MG
Description: SANGER: Inhibition of human D-502MG cell growth in a cell viability assay.

MV4-11 = type: functional, cell-based, Homo sapiens, MV-4-11; conditions: Homo sapiens, MV4-11;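 further: cell viability readout measuring growth inhibition of human MV-4-11 cells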
Description: SANGER: Inhibition of human MV-4-11 cell growth in a cell viability assay.

LB2241-RCC = type: functional, cell-based, Homo sapiens; conditions: Homo sapiens, LB2241-RCC;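 further: cell viability assay measuring how strongly the cultured human renal carcinoma line is prevented from growing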
Description: SANGER: Inhibition of human LB2241-RCC cell growth in a cell viability assay.

NCI-H1155 = type: functional, cell-based, Homo sapiens; conditions: Homo sapiens, NCI-H1155;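 further: cell growth inhibition measured by a viability assay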
Description: SANGER: Inhibition of human NCI-H1155 cell growth in a cell viability assay.

HCE-T = type: functional, cell-based, Homo sapiens; conditions: Homo sapiens, HCE-T;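 further: cell viability assay read-out, reporting inhibition of HCE-T cell growth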
Description: SANGER: Inhibition of human HCE-T cell growth in a cell viability assay.

SW 954 = type: functional, cell-based, Homo sapiens; conditions: Homo sapiens, SW 954;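 further: growth inhibition of SW954 human cancer cells, read out as cell viability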
Description: SANGER: Inhibition of human SW954 cell growth in a cell viability assay.

EW-3 = type: functional, cell-based, Homo sapiens; conditions: Homo sapiens, EW-3;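 further: cell viability assay read-out, IC50 reflects inhibition of growth of the EW-3 cells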
Description: SANGER: Inhibition of human EW-3 cell growth in a cell viability assay.

SF-539 = type: functional, cell-based, Homo sapiens; conditions: Homo sapiens, SF-539;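 further: Read-out is a cell viability assay, with IC50 reflecting inhibition of cell growth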
Description: SANGER: Inhibition of human SF539 cell growth in a cell viability assay.

NCI-H1770 = type: functional, cell-based, Homo sapiens; conditions: Homo sapiens, NCI-H1770;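 further: growth inhibition of NCI-H1770 cells determined with a viability readout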
Description: SANGER: Inhibition of human NCI-H1770 cell growth in a cell viability assay.

MOLT-4 = type: functional, cell-based, Homo sapiens; conditions: Homo sapiens, MOLT-4;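 further: growth inhibition of MOLT-4 cells, determined with a cell viability readout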
Description: SANGER: Inhibition of human MOLT-4 cell growth in a cell viability assay.

Ramos-2G6-4C10 = type: functional, cell-based, Homo sapiens; conditions: Homo sapiens, Ramos-2G6-4C10;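 further: growth inhibition of the cell line, measured by a cell viability read-out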
Description: SANGER: Inhibition of human Ramos-2G6-4C10 cell growth in a cell viability assay.

ES3 = type: functional, cell-based, Homo sapiens; conditions: Homo sapiens, ES3;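 further: growth inhibition of ES3 cells, read out with a cell viability assay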
Description: SANGER: Inhibition of human ES3 cell growth in a cell viability assay.

RXF 393 = type: functional, cell-based, Homo sapiens; conditions: Homo sapiens, RXF 393;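 further: growth inhibition of human RXF 393 cells, read out with a cell viability assay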
Description: SANGER: Inhibition of human RXF393 cell growth in a cell viability assay.

SNU-C2B = type: functional, cell-based, Homo sapiens; conditions: Homo sapiens, SNU-C2B;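 further: cell viability readout used to measure compound-driven suppression of SNU-C2B cell proliferation, IC50 marking half-maximal growth inhibition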
Description: SANGER: Inhibition of human SNU-C2B cell growth in a cell viability assay.

GT3TKB = type: functional, cell-based, Homo sapiens; conditions: Homo sapiens, GT3TKB;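 further: growth inhibition of the cell line, read out with a cell viability assay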
Description: SANGER: Inhibition of human GT3TKB cell growth in a cell viability assay.

OS-RC-2 = type: functional, cell-based, Homo sapiens; conditions: Homo sapiens, OS-RC-2;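 further: growth inhibition of human OS-RC-2 cells, measured by a cell viability assay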
Description: SANGER: Inhibition of human OS-RC-2 cell growth in a cell viability assay.

A498 = type: functional, cell-based, Homo sapiens; conditions: Homo sapiens, A498;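 further: growth inhibition of human A498 cells, read out with a cell viability assay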
Description: SANGER: Inhibition of human A498 cell growth in a cell viability assay.

Measured: IC50

CC1(C)CNc2cc(NC(=O)c3cccnc3NCc3ccncc3)ccc21 [MOTESANIB]
> 2000 nM: all assays above

CCN(CC)CCCCNc1ncc2cc(-c3cc(OC)cc(OC)c3)c(NC(=O)NC(C)(C)C)nc2n1 [PD-173074]
1370 nM: DMS-114
> 2000 nM: all other assays above

Cn1cnc2c(F)c(Nc3ccc(Br)cc3Cl)c(C(=O)NOCCO)cc21 [SELUMETINIB]
488 nM: U-266
3950 nM: LB996-RCC
512 nM: EM-2
93.8 nM: LB2518-MEL
575 nM: MV4-11
1700 nM: HAL-01
896 nM: SW 954
1840 nM: BB65-RCC
971 nM: HCE-T
1630 nM: MEG-01
166 nM: SH-4
2930 nM: EW-3
2400 nM: OS-RC-2
790 nM: LB2241-RCC
> 4000 nM: all other assays above

Source: ChEMBL document CHEMBL1201861, “Genomics of Drug Sensitity in Cancer screening data, Wellcome Trust Sanger Institute”
